Experimental data taken from ChEMBL document CHEMBL4665709, “Rational Avoidance of Protease Cleavage Sites and Symmetrical End-Tagging Significantly Enhances the Stability and Therapeutic Potential of Antimicrobial Peptides” (J Med Chem, 2020).
Converted amounts (≈) assume the structure as drawn. Where a SMILES comes first, the peptide text is derived from it.

What was measured:
[1] = Therapeutic index, ratio of MHC for human RBC to geometric mean of peptide MIC for Escherichia coli UB1005; format: toxicity; settings: human red blood cells (RBC), read-out: TI
[2] = Therapeutic index, ratio of MHC for human RBC to geometric mean of peptide MIC for Salmonella choleraesuis 503; format: toxicity; settings: human red blood cells (RBC), read-out: TI
Streptococcus agalactiae = assay: Antibacterial activity against Streptococcus agalactiae H92 after 18 to 24 hrs by CLSI-based broth microdilution method; format: functional; settings: time hrs 18-24
[3] = Antibacterial activity against Salmonella pullorum 7913 after 18 to 24 hrs by CLSI-based broth microdilution method; format: functional, Salmonella enterica subsp. enterica serovar Pullorum; settings: Salmonella enterica, time hrs 18-24
[4] = Therapeutic index, ratio of MHC for human RBC to geometric mean of peptide MIC for methicillin-resistant Staphylococcus aureus 43300; format: toxicity; settings: human red blood cells (RBC), read-out: TI
[5] = Cytotoxicity against mouse RAW264.7 cells assessed as cell viability at 128 uM by MTT assay relative to control; format: cell-based; settings: read-out: Activity
Salmonella typhimurium [6] = assay: Antibacterial activity against Salmonella typhimurium 7731 after 18 to 24 hrs by CLSI-based broth microdilution method; format: functional, Salmonella enterica subsp. enterica serovar Typhimurium; settings: Salmonella enterica, time hrs 18-24
Enterococcus faecalis = assay: Antibacterial activity against Enterococcus faecalis ATCC 29212 after 18 to 24 hrs by CLSI-based broth microdilution method; format: functional; settings: time hrs 18-24
Escherichia coli [7] = assay: Antibacterial activity against Escherichia coli ATCC 25922 after 18 to 24 hrs by CLSI-based broth microdilution method; format: functional; settings: time hrs 18-24
[8] = test system: Staphylococcus epidermidis; assay: Antibacterial activity against Staphylococcus epidermidis ATCC 12228 after 18 to 24 hrs by CLSI-based broth microdilution method; format: functional; settings: time hrs 18-24
[9] = Therapeutic index, ratio of MHC for human RBC to geometric mean of peptide MIC for Salmonella pullorum 7913; format: toxicity; settings: human red blood cells (RBC), read-out: TI
Staphylococcus aureus [10] = assay: Antibacterial activity against methicillin-resistant Staphylococcus aureus 43300 after 18 to 24 hrs by CLSI-based broth microdilution method; format: functional; settings: time hrs 18-24
Salmonella enterica = assay: Antibacterial activity against Salmonella choleraesuis 503 after 18 to 24 hrs by CLSI-based broth microdilution method; format: functional; settings: time hrs 18-24
[11] = Therapeutic index, ratio of MHC for human RBC to geometric mean of peptide MIC for Salmonella typhimurium 7731; format: toxicity; settings: human red blood cells (RBC), read-out: TI
[12] = Therapeutic index, ratio of MHC for human RBC to geometric mean of peptide MIC for Salmonella typhimurium 14028; format: toxicity; settings: human red blood cells (RBC), read-out: TI
[13] = Therapeutic index, ratio of MHC for human RBC to geometric mean of peptide MIC for Escherichia coli ATCC 25922; format: toxicity; settings: human red blood cells (RBC), read-out: TI
[14] = Therapeutic index, ratio of MHC for human RBC to geometric mean of peptide MIC for Staphylococcus aureus ATCC 29213; format: toxicity; settings: human red blood cells (RBC), read-out: TI
[15] = Therapeutic index, ratio of MHC for human RBC to geometric mean of peptide MIC for Streptococcus agalactiae H92; format: toxicity; settings: human red blood cells (RBC), read-out: TI
Staphylococcus aureus [16] = assay: Antibacterial activity against Staphylococcus aureus 11011 after 18 to 24 hrs by CLSI-based broth microdilution method; format: functional; settings: time hrs 18-24
[17] = Hemolytic activity in human RBC assessed as hemolysis at 1 to 128 uM relative to control; format: ADME, cell-based, Erythrocyte; settings: human red blood cells (RBC), dose 1-128 µM, read-out: Activity
Salmonella typhimurium [18] = assay: Antibacterial activity against Salmonella typhimurium 14028 after 18 to 24 hrs by CLSI-based broth microdilution method; format: functional, Salmonella enterica subsp. enterica serovar Typhimurium; settings: Salmonella enterica, time hrs 18-24
[19] = Therapeutic index, ratio of MHC for human RBC to geometric mean of peptide MIC for Staphylococcus aureus 11011; format: toxicity; settings: human red blood cells (RBC), read-out: TI
Erythrocyte = assay: Hemolytic activity in human RBC assessed as hemolysis; format: ADME, cell-based
Staphylococcus aureus [20] = assay: Antibacterial activity against Staphylococcus aureus ATCC 29213 after 18 to 24 hrs by CLSI-based broth microdilution method; format: functional; settings: time hrs 18-24
Escherichia coli [21] = assay: Antibacterial activity against Escherichia coli UB1005 after 18 to 24 hrs by CLSI-based broth microdilution method; format: functional; settings: time hrs 18-24
[22] = Cytotoxicity against HEK-293T cells assessed as cell viability at 128 uM by MTT assay relative to control; format: cell-based; settings: human, read-out: Activity
[23] = Therapeutic index, ratio of MHC for human RBC to geometric mean of peptide MIC for Staphylococcus epidermidis ATCC 12228; format: toxicity; settings: human red blood cells (RBC), read-out: TI
[24] = Therapeutic index, ratio of MHC for human RBC to geometric mean of peptide MIC for Enterococcus faecalis ATCC 29212; format: toxicity; settings: human red blood cells (RBC), read-out: TI

SMILES	selectivity ratio [1]	selectivity ratio [2]	MIC (Streptococcus agalactiae) [µM]	MIC [3] [µM]	selectivity ratio [4]	viability at 128 µM [5] [%]	MIC (Salmonella typhimurium [6]) [µM]	MIC (Enterococcus faecalis) [µM]	MIC (Escherichia coli [7]) [µM]	MIC [8] [µM]	selectivity ratio [9]	MIC (Staphylococcus aureus [10]) [µM]	MIC (Salmonella enterica) [µM]	selectivity ratio [11]	selectivity ratio [12]	selectivity ratio [13]	selectivity ratio [14]	selectivity ratio [15]	MIC (Staphylococcus aureus [16]) [µM]	hemolysis at up to 128 µM [17] [%]	further results
CC(C)[C@H](N)C(=O)N[C@@H](CS)C(=O)N[C@@H](CCCNC(=N)N)C(=O)N[C@@H](CCCCN)C(=O)N1CCC[C@H]1C(=O)N[C@H](C(=O)N[C@H](C(=O)N[C@@H](CS)C(=O)N[C@@H](CCCNC(=N)N)C(=O)N[C@@H](CCCCN)C(=O)N1CCC[C@H]1C(=O)N[C@H](C(N)=O)C(C)C)C(C)C)C(C)C (H-VCRKPVVCRKPV-NH2)	2	2	> 64	> 64	2	> 90	> 64	> 64	> 64	> 64	2	> 64	> 64	2	2	2	2	2	> 64	< 5	MIC (Salmonella typhimurium [18]): > 64 µM; selectivity ratio [19]: 2; MHC (Erythrocyte): > 128 µM; MIC (Staphylococcus aureus [20]): > 64 µM; MIC (Escherichia coli [21]): > 64 µM; viability at 128 µM [22]: > 90%; selectivity ratio [23]: 2; selectivity ratio [24]: 2
CC[C@H](C)[C@H](N)C(=O)N[C@H](C(=O)N[C@@H](CS)C(=O)N[C@@H](CCCNC(=N)N)C(=O)N[C@@H](CCCCN)C(=O)N1CCC[C@H]1C(=O)N[C@H](C(=O)N[C@H](C(=O)N[C@@H](CS)C(=O)N[C@@H](CCCNC(=N)N)C(=O)N[C@@H](CCCCN)C(=O)N1CCC[C@H]1C(=O)N[C@H](C(=O)N[C@H](C(=O)N[C@@H](CS)C(=O)N[C@@H](CCCNC(=N)N)C(=O)N[C@@H](CCCCN)C(=O)N1CCC[C@H]1C(=O)N[C@H](C(=O)N[C@H](C(N)=O)[C@@H](C)CC)[C@@H](C)CC)[C@@H](C)CC)[C@@H](C)CC)[C@@H](C)CC)[C@@H](C)CC)[C@@H](C)CC (H-IICRKPIICRKPIICRKPII-NH2)	14.2	14.2	64 (≈ 152 µg/mL)	32 (≈ 76 µg/mL)	2	> 90	8 (≈ 19 µg/mL)	> 64	4 (≈ 9.5 µg/mL)	64 (≈ 152 µg/mL)	14.2	64 (≈ 152 µg/mL)	16 (≈ 38 µg/mL)	14.2	14.2	14.2	2	2	> 64	< 5	MIC (Salmonella typhimurium [18]): 8 µM (≈ 19 µg/mL); selectivity ratio [19]: 2; MHC (Erythrocyte): > 128 µM; MIC (Staphylococcus aureus [20]): > 64 µM; MIC (Escherichia coli [21]): 4 µM (≈ 9.5 µg/mL); viability at 128 µM [22]: > 90%; selectivity ratio [23]: 2; selectivity ratio [24]: 2
CC[C@H](C)[C@H](N)C(=O)N[C@H](C(=O)N[C@@H](CS)C(=O)N[C@@H](CCCNC(=N)N)C(=O)N[C@@H](CCCCN)C(=O)N1CCC[C@H]1C(=O)N[C@H](C(=O)N[C@H](C(=O)N[C@@H](CS)C(=O)N[C@@H](CCCNC(=N)N)C(=O)N[C@@H](CCCCN)C(=O)N1CCC[C@H]1C(=O)N[C@H](C(=O)N[C@H](C(N)=O)[C@@H](C)CC)[C@@H](C)CC)[C@@H](C)CC)[C@@H](C)CC)[C@@H](C)CC (H-IICRKPIICRKPII-NH2)	4	4	> 64	> 64	2	> 90	32 (≈ 53.3 µg/mL)	> 64	16 (≈ 26.6 µg/mL)	> 64	4	> 64	> 64	4	4	4	2	2	> 64	< 5	MIC (Salmonella typhimurium [18]): 32 µM (≈ 53.3 µg/mL); selectivity ratio [19]: 2; MHC (Erythrocyte): > 128 µM; MIC (Staphylococcus aureus [20]): > 64 µM; MIC (Escherichia coli [21]): 16 µM (≈ 26.6 µg/mL); viability at 128 µM [22]: > 90%; selectivity ratio [23]: 2; selectivity ratio [24]: 2
